# In US12187723B2 (BRISTOL-MYERS SQUIBB COMPANY, priority 2019, dated 2025):
# Experiments:
# [1] = target: T1, human TLR8 (Homo sapiens, UniProt Q9NR97); assay: TLR8 inhibition reporter assay (HEK-Blue SEAP); assay type: cell-based; conditions: HEK-Blue cells overexpressing human TLR8, R848 15.9 μM, 22 hour incubation
# T1 construct: host or cells: HEK-Blue cells
# T1 sequence (Q9NR97 27-1041): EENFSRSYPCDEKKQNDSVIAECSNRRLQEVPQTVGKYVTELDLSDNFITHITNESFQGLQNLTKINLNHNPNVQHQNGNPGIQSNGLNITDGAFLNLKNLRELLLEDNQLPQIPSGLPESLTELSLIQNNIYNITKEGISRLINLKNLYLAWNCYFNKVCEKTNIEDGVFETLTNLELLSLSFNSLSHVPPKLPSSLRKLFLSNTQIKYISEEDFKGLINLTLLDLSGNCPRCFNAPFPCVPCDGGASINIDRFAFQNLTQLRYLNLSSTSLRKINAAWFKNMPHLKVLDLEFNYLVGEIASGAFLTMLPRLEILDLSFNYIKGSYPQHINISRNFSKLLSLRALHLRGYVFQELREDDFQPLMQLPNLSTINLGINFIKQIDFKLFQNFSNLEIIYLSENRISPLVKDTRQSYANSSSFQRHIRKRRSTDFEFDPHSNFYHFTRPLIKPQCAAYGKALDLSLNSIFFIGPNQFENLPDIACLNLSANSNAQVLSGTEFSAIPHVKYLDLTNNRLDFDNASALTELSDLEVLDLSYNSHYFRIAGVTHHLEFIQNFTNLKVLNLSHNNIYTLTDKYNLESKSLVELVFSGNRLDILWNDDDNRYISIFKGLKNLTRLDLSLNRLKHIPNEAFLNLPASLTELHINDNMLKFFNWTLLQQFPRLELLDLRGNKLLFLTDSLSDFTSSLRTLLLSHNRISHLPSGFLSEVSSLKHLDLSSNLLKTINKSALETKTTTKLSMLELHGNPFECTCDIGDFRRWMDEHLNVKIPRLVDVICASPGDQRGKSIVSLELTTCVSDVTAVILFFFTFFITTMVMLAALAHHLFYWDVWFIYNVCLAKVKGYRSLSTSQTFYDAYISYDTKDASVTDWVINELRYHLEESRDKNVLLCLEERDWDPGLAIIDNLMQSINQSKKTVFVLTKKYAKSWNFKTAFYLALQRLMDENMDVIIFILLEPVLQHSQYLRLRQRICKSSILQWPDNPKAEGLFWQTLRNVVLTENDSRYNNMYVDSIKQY
# In short: (§1)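 Screening used HEK-Blue cells overexpressing one human TLR (7, 8 or 9) and an IFN-β minimal promoter–NF-κB/AP-1 SEAP construct. Stimulation lasted 22 h at 37 °C with receptor-specific agonist: gardiquimod, R848 or ODN2006 at 7.5 μM, 15.9 μM and 5 nM.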
# [2] = target: T2, human TLR9 (Homo sapiens, UniProt Q9NR96); assay: TLR9 inhibition reporter assay (HEK-Blue SEAP); assay type: cell-based; conditions: HEK-Blue cells overexpressing human TLR9, ODN2006 5 nM, 22 hour incubation
# T2 construct: host or cells: HEK-Blue cells
# T2 sequence (Q9NR96 26-1032): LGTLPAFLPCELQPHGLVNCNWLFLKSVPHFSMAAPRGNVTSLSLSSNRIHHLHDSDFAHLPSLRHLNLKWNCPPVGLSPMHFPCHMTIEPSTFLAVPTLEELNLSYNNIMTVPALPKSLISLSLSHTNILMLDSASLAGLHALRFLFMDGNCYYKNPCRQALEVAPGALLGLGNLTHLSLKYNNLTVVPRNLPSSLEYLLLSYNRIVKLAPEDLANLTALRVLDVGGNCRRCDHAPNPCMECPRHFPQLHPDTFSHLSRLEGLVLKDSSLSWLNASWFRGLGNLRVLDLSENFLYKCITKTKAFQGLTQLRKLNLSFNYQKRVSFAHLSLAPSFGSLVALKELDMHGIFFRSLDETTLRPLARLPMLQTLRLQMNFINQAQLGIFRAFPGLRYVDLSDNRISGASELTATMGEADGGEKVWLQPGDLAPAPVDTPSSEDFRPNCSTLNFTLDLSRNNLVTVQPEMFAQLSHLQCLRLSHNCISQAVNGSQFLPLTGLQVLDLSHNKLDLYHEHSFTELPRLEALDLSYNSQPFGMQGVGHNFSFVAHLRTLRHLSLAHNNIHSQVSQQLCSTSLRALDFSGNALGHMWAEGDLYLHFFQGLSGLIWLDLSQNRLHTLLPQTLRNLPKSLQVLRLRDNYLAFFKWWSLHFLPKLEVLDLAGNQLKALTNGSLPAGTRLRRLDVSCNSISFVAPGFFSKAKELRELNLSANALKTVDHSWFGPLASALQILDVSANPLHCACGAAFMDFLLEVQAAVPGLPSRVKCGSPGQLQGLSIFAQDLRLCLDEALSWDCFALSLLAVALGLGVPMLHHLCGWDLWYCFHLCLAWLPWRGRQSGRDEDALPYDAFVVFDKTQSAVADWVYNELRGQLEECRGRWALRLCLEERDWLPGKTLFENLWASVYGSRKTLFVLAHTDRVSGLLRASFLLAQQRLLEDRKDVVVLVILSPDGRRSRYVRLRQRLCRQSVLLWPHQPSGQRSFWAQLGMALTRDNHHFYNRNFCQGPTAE
# In short: as §1
Compound,IC50 [1] [µM],IC50 [2] [µM]
"COc1cc(-c2ccc3c(c2)[nH]c(=O)n3C2CCN(C3COC3)CC2)cn2ncnc12 [Example 80, 5-(8-methoxy-[1,2,4]triazolo[1,5-a]pyridin-6-yl)-1-(1-(oxetan-3-yl)piperidin-4-yl)-1,3-dihydro-2H-benzo[d]imidazol-2-one]",> 3.13,39.6
"COc1cc(-c2ccc3c(c2)[nH]c(=O)n3C2CCN(C3CCC3)CC2)cn2ncnc12 [Example 83, 1-(1-cyclobutylpiperidin-4-yl)-5-(8-methoxy-[1,2,4]triazolo[1,5-a]pyridin-6-yl)-1,3-dihydro-2H-benzo[d]imidazol-2-one]",1.26,5.37
"Cc1cc2c(cc1-c1cc(C)c3ncnn3c1)[nH]c(=O)n2[C@@H]1CCCN(CCCC(F)(F)F)C1 [Example 39, (R)-6-methyl-5-(8-methyl-[1,2,4]triazolo[1,5-a]pyridin-6-yl)-1-(1-(4,4,4-trifluorobutyl)piperidin-3-yl)-1,3-dihydro-2H-benzo[d]imidazol-2-one]",0.0493,10.6
"COc1cc(-c2cc3[nH]c(=O)n([C@H]4CC[C@@H](NCC5CC5)CC4)c3cc2C)cn2ncnc12 [Example 60, 1-((1s,4s)-4-((cyclopropylmethyl)amino)cyclohexyl)-5-(8-methoxy-[1,2,4]triazolo[1,5-a]pyridin-6-yl)-6-methyl-1,3-dihydro-2H-benzo[d]imidazol-2-one]",0.00574,6.54
"COc1cc(-c2ccc3c(c2)[nH]c(=O)n3C2CCN(CC3CC3)CC2)cn2ncnc12 [Example 79, 1-(1-(cyclopropylmethyl)piperidin-4-yl)-5-(8-methoxy-[1,2,4]triazolo[1,5-a]pyridin-6-yl)-1,3-dihydro-2H-benzo[d]imidazol-2-one]",1.55,3.9

# The next lines start with the values.
IC50 [1] [µM],IC50 [2] [µM],Compound
0.115,45.3,"CNC(=O)CN1CCC(n2c(=O)[nH]c3cc(-c4cc(C)c5ncnn5c4)c(C)cc32)CC1 [Example 88, N-methyl-2-(4-(6-methyl-5-(8-methyl-[1,2,4]triazolo[1,5-a]pyridin-6-yl)-2-oxo-2,3-dihydro-1H-benzo[d]imidazol-1-yl)piperidin-1-yl)acetamide]"
0.00969,4.78,"COc1cc(-c2cc3[nH]c(=O)n([C@H]4CC[C@@H](N(C)C(C)C)CC4)c3cc2C)cn2ncnc12 [Example 84, 1-((1s,4s)-4-(isopropyl(methyl)amino)cyclohexyl)-5-(8-methoxy-[1,2,4]triazolo[1,5-a]pyridin-6-yl)-6-methyl-1,3-dihydro-2H-benzo[d]imidazol-2-one]"
0.147,29,"COc1cc(-c2cc3[nH]c(=O)n([C@@H]4CCCN(CC(C)(C)C)C4)c3cc2C)cn2ncnc12 [Example 71, (R)-5-(8-methoxy-[1,2,4]triazolo[1,5-a]pyridin-6-yl)-6-methyl-1-(1-neopentylpiperidin-3-yl)-1,3-dihydro-2H-benzo[d]imidazol-2-one]"
0.0188,7.57,"COc1cc(-c2cc3[nH]c(=O)n([C@H]4CC[C@@H](NC5COC5)CC4)c3cc2C)cn2ncnc12 [Example 59, 5-(8-methoxy-[1,2,4]triazolo[1,5-a]pyridin-6-yl)-6-methyl-1-((1s,4s)-4-(oxetan-3-ylamino)cyclohexyl)-1,3-dihydro-2H-benzo[d]imidazol-2-one]"
0.0196,6.47,"Cc1cc2c(cc1-c1cc(C)c3ncnn3c1)[nH]c(=O)n2[C@@H]1CCCN(CC(C)C)C1 [Example 40, (R)-1-(1-isobutylpiperidin-3-yl)-6-methyl-5-(8-methyl-[1,2,4]triazolo[1,5-a]pyridin-6-yl)-1,3-dihydro-2H-benzo[d]imidazol-2-one]"
0.0287,10.1,"Cc1cc2c(cc1-c1cc(C)c3ncnn3c1)[nH]c(=O)n2[C@@H]1CCCN(CC2CC2)C1 [Example 37, (R)-1-(1-(cyclopropylmethyl)piperidin-3-yl)-6-methyl-5-(8-methyl-[1,2,4]triazolo[1,5-a]pyridin-6-yl)-1,3-dihydro-2H-benzo[d]imidazol-2-one]"
